# Legend:
# MCF7/ADR-RES = experiment: NCI human tumor cell panel: MCF7/ADR-RES (Breast Cancer); type: cell-based; settings: Breast Cancer
# TK-10 = experiment: NCI human tumor cell panel: TK-10 (Renal Cancer); type: cell-based; settings: TK-10, Renal Cancer
# NCI-H23 = experiment: NCI human tumor cell panel: NCI-H23 (Non-Small Cell Lung Cancer); type: cell-based; settings: NCI-H23, Non-Small Cell Lung Cancer
# NCI-H322M = experiment: cells; type: cell-based; settings: Homo sapiens, Non-Small Cell Lung Cancer
# UO-31 = experiment: NCI human tumor cell panel: UO-31 (Renal Cancer); type: cell-based; settings: UO-31, Renal Cancer
# MDA-N = experiment: NCI human tumor cell panel: MDA-N (Breast Cancer); type: cell-based; settings: Breast Cancer
# EKVX = experiment: NCI human tumor cell panel: EKVX (Non-Small Cell Lung Cancer); type: cell-based; settings: Non-Small Cell Lung Cancer
# HCT-116 = experiment: NCI human tumor cell panel: HCT-116 (Colon Cancer); type: cell-based; settings: HCT-116, Colon Cancer
# OVCAR-3 = experiment: NCI human tumor cell panel: OVCAR-3 (Ovarian Cancer); type: cell-based; settings: OVCAR-3, Ovarian Cancer
# SF-539 = experiment: NCI human tumor cell panel: SF-539 (CNS Cancer); type: cell-based; settings: SF-539, CNS Cancer
# RPMI-8226 = experiment: NCI human tumor cell panel: RPMI-8226 (Leukemia); type: cell-based; settings: RPMI-8226, Leukemia
# SK-MEL-2 = experiment: NCI human tumor cell panel: SK-MEL-2 (Melanoma); type: cell-based; settings: SK-MEL-2, Melanoma
# SK-MEL-28 = experiment: NCI human tumor cell panel: SK-MEL-28 (Melanoma); type: cell-based; settings: SK-MEL-28, Melanoma
# SF-295 = experiment: NCI human tumor cell panel: SF-295 (CNS Cancer); type: cell-based; settings: SF-295, CNS Cancer
# SNB-75 = experiment: NCI human tumor cell panel: SNB-75 (CNS Cancer); type: cell-based; settings: SNB-75, CNS Cancer, read-out: Log10 GI50 (converted)
# OVCAR-8 = experiment: NCI human tumor cell panel: OVCAR-8 (Ovarian Cancer); type: cell-based; settings: OVCAR-8, Ovarian Cancer
# NCI-H460 = experiment: NCI human tumor cell panel: NCI-H460 (Non-Small Cell Lung Cancer); type: cell-based; settings: NCI-H460, Non-Small Cell Lung Cancer
# LOX IMVI = experiment: NCI human tumor cell panel: LOX IMVI (Melanoma); type: cell-based; settings: Melanoma
# NCI-H522 = experiment: NCI human tumor cell panel: NCI-H522 (Non-Small Cell Lung Cancer)
# SK-MEL-5 = experiment: NCI human tumor cell panel: SK-MEL-5 (Melanoma); type: cell-based; settings: SK-MEL-5, Melanoma
# SW-620 = experiment: NCI human tumor cell panel: SW-620 (Colon Cancer); type: cell-based; settings: SW-620, Colon Cancer, read-out: Log10 TGI (converted)
# A498 = experiment: NCI human tumor cell panel: A498 (Renal Cancer); type: cell-based; settings: A498, Renal Cancer
# A549/ATCC = experiment: NCI human tumor cell panel: A549/ATCC (Non-Small Cell Lung Cancer); type: cell-based; settings: Non-Small Cell Lung Cancer
# MDA-MB-435 = experiment: NCI human tumor cell panel: MDA-MB-435 (Breast Cancer); type: cell-based; settings: MDA-MB-435, Breast Cancer
# IGROV1 = experiment: NCI human tumor cell panel: IGROV1 (Ovarian Cancer); type: cell-based; settings: IGROV-1, IGROV1, Ovarian Cancer
# HT29 = experiment: NCI human tumor cell panel: HT29 (Colon Cancer); type: cell-based; settings: HT-29, HT29, Colon Cancer
# MOLT-4 = experiment: NCI human tumor cell panel: MOLT-4 (Leukemia); type: cell-based; settings: MOLT-4, Leukemia
# M14 = experiment: NCI human tumor cell panel: M14 (Melanoma); type: cell-based; settings: M14, Melanoma
# BT-549 = experiment: NCI human tumor cell panel: BT-549 (Breast Cancer); type: cell-based; settings: BT-549, Breast Cancer
# ACHN = experiment: NCI human tumor cell panel: ACHN (Renal Cancer); type: cell-based; settings: Renal Cancer
# U251 = experiment: NCI human tumor cell panel: U251 (CNS Cancer); type: cell-based; settings: U-251, U251, CNS Cancer
# 786-0 = experiment: NCI human tumor cell panel: 786-0 (Renal Cancer); type: cell-based; settings: 786-0, Renal Cancer
# [1] = read-out: Log10 GI50 (converted)
# [2] = read-out: Log10 TGI (converted)
smiles,measurement,setting,value
O=Cc1ccc(-c2ccc(-c3cccs3)[se]2)s1 [NSC 675346],GI50,MCF7/ADR-RES; [1],13.2 µM
same,IC (TGI),MCF7/ADR-RES; [2],60.3 µM
same,GI50,TK-10; [1],0.0631 µM
same,IC (TGI),TK-10; [2],0.417 µM
same,GI50,NCI-H23; [1],14.5 µM
same,IC (TGI),NCI-H23; [2],58.9 µM
same,GI50,NCI-H322M; [1],12.9 µM
same,IC (TGI),NCI-H322M; [2],> 100 µM
same,GI50,UO-31; [1],35.5 µM
same,IC (TGI),UO-31; [2],> 100 µM
same,GI50,MDA-N; [1],> 100 µM
same,IC (TGI),MDA-N; [2],> 100 µM
same,GI50,EKVX; [1],77.6 µM
same,IC (TGI),EKVX; [2],> 100 µM
same,GI50,HCT-116; [1],0.115 µM
same,IC (TGI),HCT-116; [2],> 100 µM
same,GI50,OVCAR-3; [1],0.0191 µM
same,IC (TGI),OVCAR-3; [2],21.4 µM
same,GI50,SF-539; [1],51.3 µM
same,IC (TGI),SF-539; [2],> 100 µM
same,GI50,RPMI-8226; [1],> 100 µM
same,IC (TGI),RPMI-8226; read-out: Log10 TGI,> 100 µM
same,GI50,SK-MEL-2; [1],24.5 µM
same,IC (TGI),SK-MEL-2; [2],> 100 µM
same,GI50,SK-MEL-28; [1],44.7 µM
same,IC (TGI),SK-MEL-28; [2],> 100 µM
same,GI50,SF-295; [1],21.4 µM
same,IC (TGI),SF-295; [2],69.2 µM
same,GI50,SNB-75,13.8 µM
same,GI50,OVCAR-8; [1],4.47 µM
same,IC (TGI),OVCAR-8; [2],> 100 µM
same,GI50,NCI-H460; [1],0.251 µM
same,IC (TGI),NCI-H460; [2],> 100 µM
same,GI50,LOX IMVI; [1],19.5 µM
same,IC (TGI),LOX IMVI; [2],> 100 µM
same,GI50,"NCI-H522; NCI-H522, read-out: Log10 GI50 (converted)",33.1 µM
same,IC (TGI),"NCI-H522; NCI-H522, read-out: Log10 TGI",> 100 µM
same,GI50,SK-MEL-5; [1],46.8 µM
same,IC (TGI),SK-MEL-5; [2],> 100 µM
same,IC (TGI),SW-620,> 100 µM
same,GI50,A498; [1],0.145 µM
same,IC (TGI),A498; [2],0.295 µM
same,GI50,A549/ATCC; [1],55 µM
same,IC (TGI),A549/ATCC; [2],> 100 µM
same,GI50,MDA-MB-435; [1],28.2 µM
same,IC (TGI),MDA-MB-435; [2],87.1 µM
same,GI50,IGROV1; [1],0.162 µM
same,IC (TGI),IGROV1; [2],0.562 µM
same,GI50,HT29; [1],> 100 µM
same,IC (TGI),HT29; [2],> 100 µM
same,GI50,MOLT-4; [1],> 100 µM
same,IC (TGI),MOLT-4; [2],> 100 µM
same,GI50,M14; [1],28.2 µM
same,IC (TGI),M14; [2],> 100 µM
same,GI50,BT-549; [1],≥ 100 µM
same,IC (TGI),BT-549; [2],> 100 µM
same,GI50,ACHN; [1],22.9 µM
same,IC (TGI),ACHN; [2],> 100 µM
same,GI50,U251; [1],0.0575 µM
same,IC (TGI),U251; [2],25.7 µM
same,GI50,786-0; [1],13.5 µM
same,IC (TGI),786-0; [2],> 100 µM
